Laboratory results: US20070191426A1, “Derivatives of 3-aminocarbonylquinoline, pharmaceutical compositions containing them and processes and intermediates for their preparation” (priority 2003, published 2007)

Experiments:
[1] = molecular target: T1, PDE4B (human recombinant) (Homo sapiens, UniProt Q07343); experiment: Inhibition of PDE4B activity: radioactive Scintillation Proximity Assay (SPA); type: biochemical; conditions: SPA assay (Examples 1 to 6); read-out: PDE4B mean pIC50 (converted)
T1 construct: made in house
Excerpt: Human recombinant PDE4B, in particular the 2B splice variant thereof (HSPDE4B2B), is disclosed in WO 94/20079 and also in M. M. McLaughlin et al., “A low Km, rolipram-sensitive, cAMP-specific phosphodiesterase from human brain: cloning and expression of cDNA, biochemical characterization of recombinant protein, and tissue distribution of mRNA”, J. Biol. Chem., 1993, 268, 6470-6476. For example, in Example 1 of WO 94/20079, human recombinant PDE4B is described as being expressed in the PDE-deficient yeast Saccharomyces cerevisiae strain GL62, e.g. after induction by addition of 150 uM CuSO4, and 100,000×g supernatant fractions of yeast cell lysates are described for use in the harvesting of PDE4B enzyme.
(§1) Inhibition of PDE3, PDE4B, PDE4D, PDE5 or PDE6 Activity: Radioactive Scintillation Proximity Assay (SPA)
(§2) The ability of compounds to inhibit catalytic activity at PDE4B or 4D (human recombinant), PDE3 (from bovine aorta) PDE5 (human recombinant) or PDE 6 (from bovine retina) was may be determined by Scintillation Proximity Assay (SPA) in 96-well format. Test compounds (preferably as a solution in DMSO, e.g. 2 microlitre (μl) volume) were preincubated at ambient temperature in Wallac Isoplates (code 1450-514) with PDE enzyme in 50 mM Tris-HCl buffer pH 7.5, 8.3 mM MgCl2, 1.7 mM EGTA, 0.05% (w/v) bovine serum albumin for 10-30 minutes. The enzyme concentration was adjusted so that control rates are linear over the assay incubation period. For the PDE3, PDE4B and PDE4D assays […] 3′,5′-cyclic phosphate (Amersham Pharmacia Biotech, code TRK.559 or Amersham Biosciences UK Ltd, Pollards Wood, Chalfont St Giles, Buckinghamshire HP8 4SP, UK) was added to give 0.05 μCi per well and ˜10 nM final concentration. For the PDE5 and PDE6 assays [8-^3H]guanosine 3′,5′-cyclic phosphate (Amersham Pharmacia Biotech , code TRK.392) was added to give 0.05 μCi per well and ˜36 nM final concentration. Plates e.g. containing approx. 100 μl volume of assay mixture were mixed on an orbital shaker for 5 minutes and incubated at ambient temperature for 1 hour. Phosphodiesterase SPA beads (Amersham Pharmacia Biotech, code RPNQ 0150) were added (˜1 mg per well) to terminate the assay. Plates were sealed and shaken and allowed to stand at ambient temperature for 35 minutes to 1 hour to allow the beads to settle. Bound radioactive product was measured using a WALLAC TRILUX 1450 MicroBeta scintillation counter. […] Curves were analyzed using ActivityBase and XLfit (ID Business Solutions Limited, 2 Ocean Court, Surrey Research Park, Guildford, Surrey GU2 7QB, United Kindgom). Results were expressed as pIC50 values.

PDE5 (human recombinant) = PDE5 (human recombinant) (Homo sapiens, UniProt O76074); experiment: Inhibition of PDE5 activity: radioactive Scintillation Proximity Assay (SPA); type: biochemical; conditions: SPA assay (all Examples); read-out: PDE5 mean pIC50 (converted)
Excerpt: Human recombinant PDE5 is disclosed in K. Loughney et al., “Isolation and characterization of cDNAs encoding PDE5A, a human cGMP-binding, cGMP-specific 3′,5′-cyclic nucleotide phosphodiesterase”, Gene, 1998, 216, 139-147.
as §1, §2

T1 sequence (Q07343 1-564 isoform Q07343-2): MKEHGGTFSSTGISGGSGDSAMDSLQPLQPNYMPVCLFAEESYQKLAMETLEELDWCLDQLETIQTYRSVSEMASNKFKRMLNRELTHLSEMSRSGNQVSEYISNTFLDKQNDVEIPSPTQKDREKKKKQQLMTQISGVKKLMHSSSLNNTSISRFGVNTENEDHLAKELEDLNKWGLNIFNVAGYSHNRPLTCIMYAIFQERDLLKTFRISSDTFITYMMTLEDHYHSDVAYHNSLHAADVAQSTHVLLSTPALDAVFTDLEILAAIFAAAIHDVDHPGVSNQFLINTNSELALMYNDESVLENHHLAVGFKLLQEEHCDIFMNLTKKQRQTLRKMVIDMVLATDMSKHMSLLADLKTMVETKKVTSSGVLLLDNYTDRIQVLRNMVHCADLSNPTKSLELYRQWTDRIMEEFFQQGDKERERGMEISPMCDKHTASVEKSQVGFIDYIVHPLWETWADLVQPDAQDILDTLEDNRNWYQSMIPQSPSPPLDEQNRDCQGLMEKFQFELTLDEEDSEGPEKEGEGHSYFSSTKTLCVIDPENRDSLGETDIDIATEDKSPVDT

IC50 [1]	IC50 (PDE5 (human recombinant))	SMILES
0.0398 µM	> 31.6 µM	COc1cccc(Nc2c(C(N)=O)cnc3ccc(C(=O)NC(C)(C)C)cc23)c1 [Example 3]
0.01 µM	> 31.6 µM	COc1cccc(Nc2c(C(N)=O)cnc3ccc(C(=O)N4CCOCC4)cc23)c1 [Example 1, 4-{[3-(Methyloxy)phenyl]amino}-6-(4-morpholinylcarbonyl)-3-quinolinecarboxamide]
0.501 µM	> 31.6 µM	CNC(=O)c1ccc2ncc(C(N)=O)c(Nc3cccc(OC)c3)c2c1 [Example 6]
0.0251 µM	> 31.6 µM	COc1cccc(Nc2c(C(N)=O)cnc3ccc(C(=O)Nc4ccccc4)cc23)c1 [Example 2, 4-{[3-(methyloxy)phenyl]amino}-N^6-phenyl-3,6-quinolinedicarboxamide]
